Reference: patent US6759207B2, “Fluorogenic or fluorescent reporter molecules and their applications for whole-cell fluorescence screening assays for caspases and other enzymes and the use thereof” (Cytovia, Inc., priority 1997, dated 2004)
One block for each molecule: values may come before it.

Key:
HL-60 cells [1] = test: Staining of apoptotic HL-60 cells by caspase-3 substrate (whole-cell assay, microscopy); assay type: cell-based
Protocol: (§1) The ability of N-Ac-DEVD-N′-octyloxycarbonyl-R110 SEQ ID NO:5 to detect caspase activation in intact cells was tested using apoptotic HL-60 and Jurkat cells. These whole-cell assays were carried out in two stages: 1) induction of apoptosis; 2) incubation with the substrate. For HL-60 cells, apoptosis was induced by treatment with 10 μg/ml vinblastine for 4 hours. Control samples were treated with DMSO. For Jurkat cells, apoptosis was induced by treatment with 500 ng/ml agonistic antiFas antibody for 2 hours. Control samples were treated with PBS. Following apoptosis induction, the cells were incubated with 50 μM N-Ac-DEVD-N′-octyloxycarbonyl-R110 SEQ ID NO:5 in caspase assay buffer (40 mM PIPES, pH 7.4; 100 mM NaCl; 10% sucrose; 1 mM EDTA; 10 mM DTT). The cells were than transferred to a glass microslide and viewed by epifluorescent illumination on a Nikon inverted microscope.

[2] = system: apoptotic HL-60 cell lysates; test: Cleavage of caspase-3 substrates by apoptotic HL-60 cell lysates; assay type: biochemical; details: 10 μM or 50 μM substrate, 37° C., vinblastine treated HL-60 cell lysates
Protocol: (§2) The caspase substrates were assayed by recombinant caspase-3 and by lysates prepared from apoptotic HL-60 cells. The assays were carried out at 37° C. in 96-well plates in a 100 μL incubation containing 30 μL of caspase-3 preparation or cell lysate, 10 μM or 50 μM of the substrate, and caspase assay buffer (40 mM 1,4-piperazinebis(ethansulfonic acid) (PIPES, Aldrich Chemical Company) pH 7.2; 100 mM NaCl; 10% sucrose; 0.1% CHAPS; 1 mM EDTA; 10 mM DTT). At the end of the incubation period, the fluorescence was measured on a Bio-Tek FL500 fluorescence microplate reader using excitation and emission wavelengths of 485 and 530 nm, respectively. Two different controls were run: 1) an enzyme blank consisting of samples containing substrate, but without enzyme or cell lysate; 2) an inhibitor control, consisting of samples which contained the caspase inhibitor, Ac-DEVD-CHO (f.c., 10 μM).

[3] = target: T1, recombinant human caspase-3 (Homo sapiens, UniProt P42574); test: Cleavage of caspase-3 substrates by recombinant human caspase-3; assay type: biochemical; details: for Cleavage by Caspase-3: 10 μM or 50 μM substrate, 37° C.
T1 sequence (P42574 29-175 limits assumed): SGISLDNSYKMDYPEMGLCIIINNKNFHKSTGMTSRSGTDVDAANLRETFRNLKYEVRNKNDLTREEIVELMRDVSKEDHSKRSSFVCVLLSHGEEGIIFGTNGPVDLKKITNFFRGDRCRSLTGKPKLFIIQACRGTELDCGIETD
T1 sequence (P42574 176-277 limits assumed): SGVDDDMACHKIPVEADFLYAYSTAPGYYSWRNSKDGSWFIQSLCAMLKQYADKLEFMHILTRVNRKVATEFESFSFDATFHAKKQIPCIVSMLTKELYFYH
Protocol: as §2

Jurkat cells [4] = test: Cleavage of caspase-3 substrate by whole apoptotic Jurkat cells (plate reader); assay type: cell-based
Protocol: In order to quantitate the cleavage of N-Ac-[…]-N-octyloxycarbonyl-R110 SEQ ID NO:5 by whole cells, an assay was performed in which the fluorescent signal generated from this substrate by apoptotic Jurkat cells was measured in a spectrofluorometric plate reader. Jurkat cells were incubated for varying times in 96-well plates with 500 ng/ml antiFas antibody to induce apoptosis. Control cells were incubated with PBS. At the end of the treatment period, the cells were harvested, centrifuged in 1.5 ml tubes and resuspended in 25 μL of medium containing 1% FBS. 25 μL of caspase buffer containing 50 μM N-Ac-DEVD-N′-octyloxycarbonyl R110 SEQ ID NO:5 was added, and the cells were incubated for one hour. At the end of the incubation period, three 5 μL aliquots from each time point were placed in 96-well plates and the fluorescence was measured at excitation/emission wavelength of 485/530 nm. […] However, cells treated with antiFas gave a detectable fluorescent signal at about one hour after apoptosis induction, and the signal continued to increase up to the 2 hour timepoint, with a signal to background ratio of about 7.

Jurkat cells [5] = test: Staining of apoptotic Jurkat cells by caspase-3 substrate (whole-cell assay, microscopy); assay type: cell-based; details: 50 μM substrate
Protocol: as §1

HL-60 cells [6] = test: Uptake and cleavage of aminopeptidase substrate by HL-60 cells; assay type: cell-based; details: 10 μM substrate, 3 hours at 37° C.; for fluorescence of cells under microscope: FIGS. 7A-B; for Counts/μg protein: excitation 485 nm, emission 525 nm
Protocol: HL-60 cells were placed in 5 ml of Iscove's medium (without serum or phenol-red) containing 10 μM N-G-N′-octyloxycarbonyl-R110 or 10 μM N-Z-G-N-octyloxycarbonyl-R110. Three million HL-60 cells were incubated for 3 hours at 37° C. in a CO2 incubator, recovered by centrifugation, and washed in 50 μL of ice-cold medium. The cells were re-centrifuged and the final pellet was resuspended in 50 μL of fresh medium. Aliquots of each cell suspension were placed in a microtiter 96-well plate and read on a Wallac 1420 microplate reader with excitation wavelength at 485 nm, emission wavelength at 525 nm. Aliquots of each cell suspension were also placed on microslides and viewed on a Nikon inverted microscope with epifluorescent illumination. […] There was no signal from the cells incubated with 10 μM N-Z-G-N′-octyloxycarbonyl-R110.

[7] = system: HL-60 cell lysates (aminopeptidases); test: Cleavage of aminopeptidase substrate by HL-60 cell lysates (microtiter plate assay); assay type: biochemical; details: FIG. 6
Protocol: Aminopeptidases are present in many cells and sequentially remove unblocked amino acid residues from peptides, starting from the N-terminus. Peptides with blocked amino termini are not cleaved. HL-60 lysates were prepared by homogenizing HL-60 cells in caspase buffer, and the ability of these lysates to cleave N-Z-G-N′-octyloxycarbonyl R110 and N-G-N′-octyloxycarbonyl-R110 was tested in a microtiter plate assay.

[8] = Fluorescence and stability of N-acetyl-Rhodamine 110 compared to Rhodamine 110 (fluorometric assay); assay type: physicochemical
Protocol: The activities of Rhodamine 110 and N-acetyl-Rhodamine 110 as fluorescent moieties for synthetic substrates were measured in a fluorometric assay. The fluorescent signal is read in a spectrofluorometer or in a fluorometric microtiter plate reader at excitation wavelength of 485 and emission 530. Using this assay, the relative fluorescent values were determined for the two fluorescent moieties.
Fluorescence was measured using the following buffer conditions: 100 mM HEPES pH 7.5, with 10% sucrose, 1% CHAPS, 5 mM glutathione, and 1-200 nM test compound. The assay for stability was typically carried out at 37° C. for 2 days.

[9] = listed as N-Z-EVD-N′-Ethoxycarbonyl-R110

SMILES: CC(=O)N[C@@H](CC(=O)O)C(=O)N[C@@H](CCC(=O)O)C(=O)N[C@H](C(=O)N[C@H](C=O)CC(=O)O)C(C)C [Ac-DEVD-CHO, reference compound]
fluorescent signal of vinblastine-treated HL-60 cells with inhibitor added during the assay stage (HL-60 cells [1]; 50 μM Ac-DEVD-CHO, substrate 50 μM N-Ac-DEVD-N′-octyloxycarbonyl-R110): almost no fluorescent signal

SMILES: Br.CCCCCCCCOC(=O)Nc1ccc2c(c1)Oc1cc(NC(=O)CN)ccc1C21OC(=O)c2ccccc21 (stereo not drawn) [N-G-N′-octyloxycarbonyl-R110, N-Gly-N′-octyloxycarbonyl-Rhodamine-110 HBr]
signal from cells (microplate reader) (HL-60 cells [6]): showed signal | fluorescence of cells under microscope (HL-60 cells [6]): showed fluorescence under microscope | Counts/μg protein (HL-60 cells [6]): 12.98 Counts/μg protein | cleavage by HL-60 cell lysates [7]: readily cleaved

SMILES: CCCCCCCCOC(=O)Nc1ccc2c(c1)Oc1cc(NC(=O)CNC(=O)OCc3ccccc3)ccc1C21OC(=O)c2ccccc21 (stereo not drawn) [N-Z-G-N′-octyloxycarbonyl-R110, N-[Z-Gly]-N′-octyloxycarbonyl-Rhodamine-110]
signal from cells (microplate reader) (HL-60 cells [6]): no signal | fluorescence of cells under microscope (HL-60 cells [6]): no fluorescence signal was observed | Counts/μg protein (HL-60 cells [6]): 0 Counts/μg protein | cleavage by HL-60 cell lysates [7]: no signal was generated

More lines, main results first:

Cleavage by Caspase-3 [3]: Good
SMILES: CCCCCCCCOC(=O)Nc1ccc2c(c1)Oc1cc(NC(=O)[C@H](CC(=O)O)NC(=O)[C@@H](NC(=O)[C@H](CCC(=O)O)NC(=O)[C@H](CC(=O)O)NC(C)=O)C(C)C)ccc1C21OC(=O)c2ccccc21 (stereo partly drawn) [N-Ac-DEVD-N′-octyloxycarbonyl-R110, N-(Ac-Asp-Glu-Val-Asp)-N′-octyloxycarbonyl-Rhodamine 110]
Cleavage by Apoptotic Lysates [2]: Good | signal to background ratio (Jurkat cells [4]; antiFas-treated Jurkat cells, 2 hour timepoint, 485/530 nm): about 7 | fluorescent signal of PBS-treated cells (Jurkat cells [4]; control Jurkat cells): small fluorescent signal which did not increase | staining of antiFas-treated Jurkat cells (Jurkat cells [5]; 500 ng/ml agonistic antiFas antibody for 2 hours): intense staining | staining of control Jurkat cells (Jurkat cells [5]; PBS-treated): only light staining | staining of vinblastine-treated HL-60 cells (HL-60 cells [1]; 50 μM substrate, apoptosis induced by 10 μg/ml vinblastine for 4 hours): intensely stained | staining of DMSO-treated HL-60 cells (HL-60 cells [1]; 50 μM substrate, control cells): some staining

Cleavage by Caspase-3 [3]: Fair | Cleavage by Caspase-3 [3, 9]: cleaved efficiently
SMILES: CCOC(=O)Nc1ccc2c(c1)Oc1cc(NC(=O)C(CC(=O)O)NC(=O)C(NC(=O)C(CCC(=O)O)NC(=O)OCc3ccccc3)C(C)C)ccc1C21OC(=O)c2ccccc21 (stereo not drawn) [N-Z-EVD-N′-ethoxycarbonyl-R110]
Cleavage by Apoptotic Lysates [2]: Fair | Cleavage by Apoptotic Lysates [2, 9]: cleaved efficiently

Cleavage by Caspase-3 [3]: the signal was low and Poor | amount of recombinant caspase-3 required for cleavage relative to tri- and tetrapeptide substrates ([3]; FIG. 2A): 50 fold
SMILES: CCOC(=O)Nc1ccc2c(c1)Oc1cc(NC(=O)[C@H](CC(=O)O)NC(=O)[C@@H](NC(=O)OCc3ccccc3)C(C)C)ccc1C21OC(=O)c2ccccc21 (stereo partly drawn) [N-Z-VD-N′-ethoxycarbonyl-R110, N-(Cbz-Val-Asp)-N′-Ethoxycarbonyl-Rhodamine 110]
Cleavage by Apoptotic Lysates [2]: Poor

ratio of fluorescent signal (Rhodamine 110/N-acetyl Rhodamine 110) ([8]; after two days incubation at 37° C.): 10.1 | ratio of fluorescent signal (Rhodamine 110/N-acetyl Rhodamine 110) ([8]; time zero, excitation 485, emission 530, HEPES pH 7.5 buffer): 10.2
SMILES: CC(=O)Nc1ccc2c(c1)Oc1cc(N)ccc1C21OC(=O)c2ccccc21 (stereo not drawn) [N-acetyl Rhodamine 110, N-Acetyl-Rhodamine 110]
stability and efficiency as fluorescent indicator ([8]; 37° C. for 2 days): stable and efficient fluorescent indicator
